Reference: patent publication US6054435A, “6-O-substituted macrolides having antibacterial activity” (priority 1999, dated 2000)
In brackets after ≈: the same amount, converted by molar mass.

Key:
Test in all cases: in vitro antibacterial activity (MIC), agar dilution
Type in all cases: cell-based
[1] = system: Candida albicans CCH 442; details: organism code TT; BHI agar, 35-37° C., 20 to 24 hours; unit assumed
Outline: (§1)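 BHI agar incorporation method; twelve compound concentrations. Streptococcus and other slow growers inoculated at 1:10, other strains at 1:100. Visual MIC read-out versus growth control.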

[2] = system: Enterococcus faecium ATCC 8043; details: organism code II; BHI agar, 35-37° C., 20 to 24 hours; unit assumed
Outline: as §1

[3] = system: Escherichia coli DC-2; details: organism code SS; BHI agar, 35-37° C., 20 to 24 hours; unit assumed
Outline: as §1

[4] = system: Escherichia coli JUHL; details: organism code QQ; BHI agar, 35-37° C., 20 to 24 hours; unit assumed
Outline: as §1

[5] = system: Escherichia coli SS; details: organism code RR; BHI agar, 35-37° C., 20 to 24 hours; unit assumed
Outline: as §1

[6] = system: Haemophilis Influenzae DILL AMP R; details: organism code WW; BHI agar, 35-37° C., 20 to 24 hours; unit assumed
Outline: as §1

[7] = system: Micrococcus luteus ATCC 4698; details: organism code PP; BHI agar, 35-37° C., 20 to 24 hours; unit assumed
Outline: (§2)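 Endpoint: lowest concentration with no growth, slight haze or sparsely isolated colonies at the inoculum spot, judged against a compound-free BHI control. Strains were replicator-inoculated at 1:100 (1:10 for Streptococcus and other slow growers).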

[8] = system: Micrococcus luteus ATCC 9341; details: organism code OO; BHI agar, 35-37° C., 20 to 24 hours; unit assumed
Outline: as §2

[9] = system: Mycobacterium smegmatis ATCC 114; details: organism code UU; BHI agar, 35-37° C., 20 to 24 hours; unit assumed
Outline: as §1

[10] = system: Nocardia Asteroides ATCC9970; details: organism code VV; BHI agar, 35-37° C., 20 to 24 hours; unit assumed
Outline: as §1

[11] = system: Staphylococcus aureus 1775; details: organism code GG; BHI agar, 35-37° C., 20 to 24 hours; unit assumed
Outline: as §1

[12] = system: Staphylococcus aureus A-5278; details: organism code CC; BHI agar, 35-37° C., 20 to 24 hours; unit assumed
Outline: as §1

[13] = system: Staphylococcus aureus A5177; details: organism code BB; BHI agar, 35-37° C., 20 to 24 hours; unit assumed
Outline: as §1

[14] = system: Staphylococcus aureus ATCC 6538P; details: organism code AA; BHI agar, 35-37° C., 20 to 24 hours; unit assumed
Outline: as §1

[15] = system: Staphylococcus aureus CMX 553; details: organism code FF; BHI agar, 35-37° C., 20 to 24 hours; unit assumed
Outline: as §1

[16] = system: Staphylococcus aureus CMX 642A; details: organism code DD; BHI agar, 35-37° C., 20 to 24 hours; unit assumed
Outline: as §1

[17] = system: Staphylococcus aureus NCTC10649M; details: organism code EE; BHI agar, 35-37° C., 20 to 24 hours; unit assumed
Outline: as §1

[18] = system: Staphylococcus epidermidis 3519; details: organism code HH; BHI agar, 35-37° C., 20 to 24 hours; unit assumed
Outline: as §1

[19] = system: Streptococcus Pneumonia 5649; details: organism code ZZA; BHI agar, 35-37° C., 20 to 24 hours; unit assumed
Outline: as §1

[20] = system: Streptococcus Pneumonia 5979; details: organism code ZZ; BHI agar, 35-37° C., 20 to 24 hours; unit assumed
Outline: as §1

[21] = system: Streptococcus Pneumonia ATCC6303; details: organism code XX; BHI agar, 35-37° C., 20 to 24 hours; unit assumed
Outline: as §1

[22] = system: Streptococcus Pneumonia GYR 1171; details: organism code YY; BHI agar, 35-37° C., 20 to 24 hours; unit assumed
Outline: as §1

[23] = system: Streptococcus agalactiae CMX 508; details: organism code KK; BHI agar, 35-37° C., 20 to 24 hours; unit assumed
Outline: as §1

[24] = system: Streptococcus bovis A-5169; details: organism code JJ; BHI agar, 35-37° C., 20 to 24 hours; unit assumed
Outline: as §1

[25] = system: Streptococcus pyogenes 930; details: organism code MM; BHI agar, 35-37° C., 20 to 24 hours; unit assumed
Outline: as §1

[26] = system: Streptococcus pyogenes EES61; details: organism code LL; BHI agar, 35-37° C., 20 to 24 hours; unit assumed
Outline: as §1

[27] = system: Streptococcus pyogenes PIU 2548; details: organism code NN; BHI agar, 35-37° C., 20 to 24 hours; unit assumed
Outline: as §1

Row | Compound | MIC [1] | MIC [2] | MIC [3] | MIC [4] | MIC [5] | MIC [6] | MIC [7] | MIC [8] | MIC [9] | MIC [10] | MIC [11] | MIC [12] | MIC [13] | MIC [14] | MIC [15] | MIC [16] | MIC [17] | MIC [18] | MIC [19] | MIC [20] | other results
1 | CC[C@H]1OC(=O)[C@H](C)C(=O)[C@H](C)[C@@H](O[C@@H]2O[C@H](C)C[C@H](N(C)C)[C@H]2O)[C@](C)(OC/C=C/c2ccc(-c3ccccn3)s2)C[C@@H](C)C(=O)[C@H](C)[C@H]2NC(=O)O[C@@]21C [Example 75] | > 100 µg/mL | 0.05 µg/mL (≈ 0.0627 µM) | 25 µg/mL (≈ 31.3 µM) | 50 µg/mL (≈ 62.7 µM) | 0.39 µg/mL (≈ 0.489 µM) | 2 µg/mL (≈ 2.51 µM) | 0.1 µg/mL (≈ 0.125 µM) | 0.02 µg/mL (≈ 0.0251 µM) | 1.56 µg/mL (≈ 1.95 µM) | 0.02 µg/mL (≈ 0.0251 µM) | > 100 µg/mL | > 100 µg/mL | 0.05 µg/mL (≈ 0.0627 µM) | 0.05 µg/mL (≈ 0.0627 µM) | 0.05 µg/mL (≈ 0.0627 µM) | 0.05 µg/mL (≈ 0.0627 µM) | 0.05 µg/mL (≈ 0.0627 µM) | 0.05 µg/mL (≈ 0.0627 µM) | 0.125 µg/mL (≈ 0.157 µM) | 1 µg/mL (≈ 1.25 µM) | MIC [21]: ≤ 4 ng/mL; MIC [22]: ≤ 4 ng/mL; MIC [23]: 0.02 µg/mL (≈ 0.0251 µM); MIC [24]: 0.01 µg/mL (≈ 0.0125 µM); MIC [25]: 12.5 µg/mL (≈ 15.7 µM); MIC [26]: 0.02 µg/mL (≈ 0.0251 µM); MIC [27]: 0.1 µg/mL (≈ 0.125 µM)
2 | CC[C@H]1OC(=O)[C@H](C)C(=O)[C@H](C)[C@@H](O[C@@H]2O[C@H](C)C[C@H](N(C)C)[C@H]2O)[C@](C)(OC/C=C/c2ccc(-c3ccsc3)s2)C[C@@H](C)C(=O)[C@H](C)[C@H]2NC(=O)O[C@@]21C [Example 76] | > 100 µg/mL | 0.02 µg/mL (≈ 0.0249 µM) | 100 µg/mL (≈ 125 µM) | 100 µg/mL (≈ 125 µM) | 0.2 µg/mL (≈ 0.249 µM) | 8 µg/mL (≈ 9.96 µM) | 0.2 µg/mL (≈ 0.249 µM) | 0.05 µg/mL (≈ 0.0623 µM) | 0.78 µg/mL (≈ 0.971 µM) | 0.1 µg/mL (≈ 0.125 µM) | 100 µg/mL (≈ 125 µM) | 100 µg/mL (≈ 125 µM) | 0.1 µg/mL (≈ 0.125 µM) | 0.1 µg/mL (≈ 0.125 µM) | 0.1 µg/mL (≈ 0.125 µM) | 0.1 µg/mL (≈ 0.125 µM) | 0.05 µg/mL (≈ 0.0623 µM) | 0.1 µg/mL (≈ 0.125 µM) | 0.125 µg/mL (≈ 0.156 µM) | 16 µg/mL (≈ 19.9 µM) | MIC [21]: ≤ 4 ng/mL; MIC [22]: ≤ 4 ng/mL; MIC [23]: 0.01 µg/mL (≈ 0.0125 µM); MIC [24]: ≤ 0.005 µg/mL; MIC [25]: 3.1 µg/mL (≈ 3.86 µM); MIC [26]: 0.01 µg/mL (≈ 0.0125 µM); MIC [27]: 0.1 µg/mL (≈ 0.125 µM)
3 | CC[C@H]1OC(=O)[C@H](C)C(=O)[C@H](C)[C@@H](O[C@@H]2O[C@H](C)C[C@H](N(C)C)[C@H]2O)[C@](C)(OC/C=C/c2ccc(-c3ccco3)s2)C[C@@H](C)C(=O)[C@H](C)[C@H]2NC(=O)O[C@@]21C [Example 77] | > 100 µg/mL | 0.05 µg/mL (≈ 0.0635 µM) | 50 µg/mL (≈ 63.5 µM) | 50 µg/mL (≈ 63.5 µM) | 0.39 µg/mL (≈ 0.496 µM) | 8 µg/mL (≈ 10.2 µM) | 0.2 µg/mL (≈ 0.254 µM) | 0.02 µg/mL (≈ 0.0254 µM) | 0.78 µg/mL (≈ 0.991 µM) | 0.2 µg/mL (≈ 0.254 µM) | 100 µg/mL (≈ 127 µM) | 100 µg/mL (≈ 127 µM) | 0.1 µg/mL (≈ 0.127 µM) | 0.1 µg/mL (≈ 0.127 µM) | 0.1 µg/mL (≈ 0.127 µM) | 0.1 µg/mL (≈ 0.127 µM) | 0.1 µg/mL (≈ 0.127 µM) | 0.1 µg/mL (≈ 0.127 µM) | 0.25 µg/mL (≈ 0.318 µM) | 16 µg/mL (≈ 20.3 µM) | MIC [21]: ≤ 4 ng/mL; MIC [22]: ≤ 4 ng/mL; MIC [23]: 0.02 µg/mL (≈ 0.0254 µM); MIC [24]: 0.01 µg/mL (≈ 0.0127 µM); MIC [25]: 12.5 µg/mL (≈ 15.9 µM); MIC [26]: 0.05 µg/mL (≈ 0.0635 µM); MIC [27]: 0.2 µg/mL (≈ 0.254 µM)
